Consider 12 molecules from PubChem BioAssay (NCI).

Common to all, as to experiment: NCI anticancer screen, dose series, 48 h
For assay [1], the system named is HOP-92 NSCLC.
The subject of assay [2] is PC-3 prostate.
Assay [3] deals with U251 CNS.
For assay [4], the system named is COLO 205 colon.
The test system of assay [5] is SNB-75 CNS.
Assay [6] relates to MCF7 breast.
For assay [7], the system named is SN12C renal.
Assay [8] concerns MDA-MB-231 breast.
For assay [9], the system named is M14 melanoma.
Assay [10] concerns SK-OV-3 ovarian.

Where “and” joins values, the source holds several entries; their conditions need not be identical. Equal entries are not always repeated.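 Growth conditions: 96-well plates. Treatment: test compound, 48 hours, 5 concentrations. Analysis: linear interpolation between bracketing concentrations; unreached endpoints set to highest concentration. Abbreviation: GI50, concentration required for 50% inhibition of growth. Definition used: TGI = concentration required for complete inhibition of growth.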

For `O=C1CC2OCC=C3CN4CCC56c7ccccc7N1C5C2C3CC46O` (centres undefined), the TGI in [1], in assay [2], in assay [3], in [4], in assay [5] and in assay [6] was more than 100 µM each time. Besides, the TGI in assay [7], in assay [8], in assay [9] and in assay [10] was more than 100 µM in each case.
With `Cc1ccc(CNc2ccc(Br)cc2)cc1`, the TGI in [1] was 65.3 µM; in assay [2], more than 100 µM; in [3] it was more than 100 µM; in assay [4], 49.7 µM; in assay [5] it was more than 100 µM; in assay [6] it was 61 µM. Further, the TGI in assay [7], in assay [8], in assay [9] and in assay [10] was more than 100 µM each time.
As for `Oc1ccc(Br)cc1C=Nc1cccc(C(F)(F)F)c1`, the TGI in assay [1] was more than 100 µM; in assay [2], 33.3 µM; in assay [3], 45.1 µM; in assay [4] it was more than 100 µM; in assay [5], more than 100 µM; in assay [6] it was more than 100 µM. Also, the TGI is more than 100 µM in [7], more than 100 µM in assay [8], 48.6 µM in assay [9] and more than 100 µM in assay [10].
For the molecule `CCOC(=O)CSc1cc(Cl)c(C)cc1S(=O)(=O)/N=C(/N=C/c1ccc([N+](=O)[O-])s1)NNC`, the GI50 was 13.2 µM in [1]; 25 µM in assay [2]; 17 µM in assay [3]; 16 µM in [4]; 32.6 µM in assay [6]; 11.7 µM in assay [8]. Also, the GI50 is 23.1 µM in assay [9] and 24.3 µM in assay [10]. Moreover, the TGI in assay [1] is 54.6 µM; in assay [2], more than 100 µM; in assay [3], 38.7 µM; in assay [4], 34.8 µM; in [6], more than 100 µM; in assay [8], 29.7 µM. Also, the TGI in assay [9] turned out to be 56.8 µM; in assay [10], 67.1 µM.
As to `Cc1ccc(NC(=O)CCc2nc(=S)[nH][nH]2)cc1`, the TGI in [1], in [3], in assay [4], in assay [5], in assay [7] and in [9] was more than 100 µM each time. Moreover, the TGI in assay [10] was more than 100 µM.
`COc1cccc(/C=C/C(=O)c2ccc3cc(OC)ccc3c2)c1`: the GI50 is 11.1 µM in [1]; 18.3 µM in assay [2]; 14 µM in assay [3]; 8.13 µM in [4]; 0.066 µM in assay [5]; 15.4 µM in assay [6]. Besides, the figures for the GI50 in assay [8], in [9] and in assay [10] were 8.95 µM, 13.6 µM and 10.7 µM, respectively. For the same molecule, the TGI in assay [1] is 41.3 µM; in assay [2] it was more than 50 µM; in assay [3], 42 µM; in assay [4], 17 µM; in assay [5] it was 14.6 µM; in assay [6] it was more than 50 µM. Moreover, the TGI in [8] is 22.9 µM; in assay [9] it was 41.3 µM; in assay [10], 22.7 µM.
On to `CCOC(=O)C(C)(NC(=O)c1ccc(NCc2ccc3nc(NC(=O)c4ccccc4)nc(NC(=O)c4ccccc4)c3c2)cc1)C(=O)OCC`, for which the TGI in assay [1] is 18.9 µM; in [3], 21 µM; in assay [4], more than 100 µM; in assay [5], 7 µM; in assay [7] it was 29.8 µM; in assay [9] it was 44.3 µM. Besides, the TGI in assay [10] was 27.4 µM.
For the molecule `CCOCC1(COCC)CCC(c2[nH]ncc2CN(C)CCNC)CC1`, the GI50 in assay [2] is 59.4 µM; in assay [3] it was more than 100 µM; in assay [4], more than 100 µM; in assay [5], 41.4 µM; in [6], more than 100 µM; in assay [7], more than 100 µM. Besides, the GI50 in [8], in [9] and in [10] was more than 100 µM each time. Moreover, the TGI in [2], in assay [3], in [4], in assay [5], in assay [6] and in assay [7] was more than 100 µM throughout. The TGI in assay [8], in assay [9] and in assay [10] was more than 100 µM in each case.
As to `COc1ccc(-c2cc(=O)c3c(O)c(OC)c(OC)c(OC)c3o2)cc1OC`, the TGI is 28 µM in assay [1]; more than 100 µM in assay [2]; more than 100 µM in assay [3]; more than 100 µM in [4]; more than 100 µM in assay [6]; more than 100 µM in assay [7]. Also, the TGI was more than 100 µM in [8], more than 100 µM in assay [9] and 81 µM in [10].
For the molecule `CC(=O)OCC1OC(n2c(=S)n(-c3ccc([N+](=O)[O-])cc3)c(=O)c3ccccc32)C(OC(C)=O)C(OC(C)=O)C1OC(C)=O` (centres undefined), the GI50 in assay [1] is 21.9 µM; in [4], 31.2 µM; in [5] it was 7.28 µM and 19 µM; in [9], 16 µM and 30.7 µM. Moreover, the TGI in [1] is > 91.6 µM and 47.4 µM; in [2], 39.9 µM; in assay [3] it was 42 µM and 37.8 µM; in assay [4], more than 100 µM; in assay [5], 51 µM and 41.2 µM; in [6] it was 52.6 µM. For the same molecule, the TGI in assay [7] was 70.1 µM and 44.4 µM; in assay [9], 48.8 µM and > 100 µM; in assay [10], 60.1 µM and 50.1 µM.
For `CN(C)CCNC(=O)c1cccc2c1nc(-c1ccc(F)cc1)c1ccccc12`, the TGI in assay [1] was determined as 9.89 µM; in assay [3], 16.5 µM; in assay [4], 14.3 µM; in assay [5], 22.8 µM; in [7], 16 µM; in assay [9] it was 18.7 µM. In addition, the TGI in [10] amounted to 21.1 µM.
With `C/C(=N\O)c1ccc2ccc3ccccc3c2c1`, the TGI was more than 100 µM in [2]; more than 100 µM in assay [3]; 76.6 µM in assay [4]; more than 100 µM in [5]; more than 100 µM in [6]; more than 100 µM in assay [7]. Besides, the TGI in assay [8], in [9] and in [10] was more than 100 µM throughout.
